Source: US20240360126A1, “PYRAZOLO[3,4-B]PYRIDINE COMPOUNDS FOR THE TREATMENT OF AUTOIMMUNE DISEASE” (Hoffmann-La Roche Inc., priority 2021, published 2024)

Columns and labels:
[1] = target: T1, human TLR7 (Homo sapiens, UniProt Q9NYK1); assay: HEK293-Blue-hTLR-7 cells assay; format: cell-based; settings: HEK293-Blue-hTLR7 cells, R848 stimulation, 20 hrs; read-out: HEK/hTLR7 IC50
T1 construct: host or cells: HEK293 (HEK-Blue hTLR7)
T1 sequence (Q9NYK1 27-1049): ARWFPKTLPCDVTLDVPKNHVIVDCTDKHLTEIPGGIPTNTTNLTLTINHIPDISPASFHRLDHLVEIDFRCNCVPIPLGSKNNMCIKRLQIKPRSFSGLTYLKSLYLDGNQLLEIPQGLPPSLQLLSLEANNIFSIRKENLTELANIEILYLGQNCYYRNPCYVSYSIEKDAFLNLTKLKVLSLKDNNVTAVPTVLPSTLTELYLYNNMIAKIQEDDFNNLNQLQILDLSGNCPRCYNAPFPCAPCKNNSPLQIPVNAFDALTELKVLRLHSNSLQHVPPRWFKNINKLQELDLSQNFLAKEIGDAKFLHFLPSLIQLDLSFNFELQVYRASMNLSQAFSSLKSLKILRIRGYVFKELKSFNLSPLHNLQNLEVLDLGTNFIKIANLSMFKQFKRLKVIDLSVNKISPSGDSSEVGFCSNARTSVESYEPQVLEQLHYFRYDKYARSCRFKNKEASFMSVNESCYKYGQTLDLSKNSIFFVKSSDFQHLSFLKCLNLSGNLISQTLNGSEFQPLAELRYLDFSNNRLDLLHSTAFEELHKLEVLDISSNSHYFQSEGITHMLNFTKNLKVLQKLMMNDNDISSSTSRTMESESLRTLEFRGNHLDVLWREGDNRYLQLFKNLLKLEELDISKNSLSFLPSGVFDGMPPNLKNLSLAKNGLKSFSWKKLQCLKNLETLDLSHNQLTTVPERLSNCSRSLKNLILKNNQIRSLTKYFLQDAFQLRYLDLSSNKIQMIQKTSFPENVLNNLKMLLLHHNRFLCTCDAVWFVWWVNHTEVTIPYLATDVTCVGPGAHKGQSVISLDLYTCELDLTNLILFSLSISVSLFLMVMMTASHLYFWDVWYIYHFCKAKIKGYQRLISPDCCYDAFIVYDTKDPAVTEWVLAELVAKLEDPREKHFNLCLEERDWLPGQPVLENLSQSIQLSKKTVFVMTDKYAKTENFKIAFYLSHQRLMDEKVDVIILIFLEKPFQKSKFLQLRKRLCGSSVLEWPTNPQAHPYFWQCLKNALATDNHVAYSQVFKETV
Excerpt: A stable HEK293-Blue-hTLR-7 cell line was purchased from InvivoGen (Cat. #: hkb-htlr7, San Diego, California, USA). These cells were originally designed for studying the stimulation of human TLR7 by monitoring the activation of NF-κB. A SEAP (secreted embryonic alkaline phosphatase) reporter gene was placed under the control of the IFN-β minimal promoter fused to five NF-κB and AP-1-binding sites. The SEAP was induced by activating NF-κB and AP-1 via stimulating HEK-Blue hTLR7 cells with TLR7 ligands. Therefore the reporter expression was declined by TLR7 antagonist under the stimulation of a ligand, such as R848 (Resiquimod), for incubation of 20 hrs. The cell culture supernatant SEAP reporter activity was determined using QUANTI-Blue™ kit (Cat. #: rep-qbl, Invivogen, San Diego, Ca, USA) at a wavelength of 640 nm, a detection medium that turns purple or blue in the presence of alkaline phosphatase.
HEK293-Blue-hTLR7 cells were incubated at a density of 250,000-450,000 cells/mL in a volume of 170 μL in a 96-well plate in Dulbecco's Modified Eagle's medium (DMEM) containing 4.5 g/L glucose, 50 U/mL penicillin, […] streptomycin, […] Normocin, […] L-glutamine, 10% […] heat-inactivated fetal bovine serum with addition of 20 μL test compound in a serial dilution in the presence of final DMSO at 1% and 10 μL of 20 μM R848 in above DMEM, perform incubation under 37° C. in a CO2 incubator for 20 hrs. Then 20 μL of the supernatant from each well was incubated with 180 μL Quanti-blue substrate solution at 37° C. for 2 hrs and the absorbance was read at […] using a spectrophotometer. The signaling pathway that TLR7 activation leads to downstream NF-κB activation has been widely accepted, and therefore similar reporter assay was modified for evaluating TLR7 antagonist.

[2] = Human microsome stability assay; format: in vitro ADME; settings: 1 μM test compound, 0.5 mg/mL liver microsomal protein, 37° C.
Procedure: The human microsomal stability assay is used for early assessment of metabolic stability of a test compound in human liver microsomes.
Human liver microsomes (Cat. NO.: 452117, Corning, USA; Cat. NO.:H2610, Xenotech, USA) were preincubated with test compound for 10 minutes at 37° C. in 100 mM potassium phosphate buffer, pH 7.4. The reactions were initiated by adding NADPH regenerating system.
The final incubation mixtures contained 1 μM test compound, 0.5 mg/mL liver microsomal protein, 1 mM MgCl2, 1 mM NADP, 1 unit/mL isocitric dehydrogenase and 6 mM isocitric acid in 100 mM potassium phosphate buffer, pH 7.4. After incubation times of 0, 3, 6, 9, 15 and 30 minutes at 37° C., 300 μL of cold acetonitrile (including internal standard) was added to 100 μL incubation mixture to terminate the reaction. Following precipitation and centrifugation, the amount of compound remaining in the samples were determined by LC-MS/MS. Controls of no NADPH regenerating system at zero and 30 minutes were also prepared and analyzed.

Row | Compound | IC50 [1] | Clearance of Human microsome [2]
1 | Cc1cc(N2CC[C@H](c3ccc(N4CCNCC4)cn3)[C@@H](C)C2)c2cnn(C)c2n1 [Example 35, 1,6-dimethyl-4-[(3R,4S)-3-methyl-4-(5-piperazin-1-yl-2-pyridyl)-1-piperidyl]pyrazolo[3,4-b]pyridine] | 0.006 µM | 0.372 L/h/kg
2 | Cc1cc(N2CC[C@H](c3ccc(N4CC5(CNCCO5)C4)cn3)[C@@H](C)C2)c2cnn(C)c2n1 [Example 38, 2-[6-[(3R,4S)-1-(1,6-dimethylpyrazolo[3,4-b]pyridin-4-yl)-3-methyl-4-piperidyl]-3-pyridyl]-5-oxa-2,8-diazaspiro[3.5]nonane] | 0.013 µM | 0.468 L/h/kg
3 | Cc1cc(N2CC[C@@H](c3ncc(N4CCOC[C@@H](N)C4)cc3C)[C@H](C)C2)c2cnn(C)c2n1 [Example 28, (6S)-4-[6-[(3S,4R)-1-(1,6-dimethylpyrazolo[3,4-b]pyridin-4-yl)-3-methyl-4-piperidyl]-5-methyl-3-pyridyl]-1,4-oxazepan-6-amine] | 0.007 µM | 0.372 L/h/kg
4 | Cc1cc(N2CCC(c3ccc(N4CCNCC4)cn3)CC2)c2cnn(C)c2n1 [Example 2, 1,6-dimethyl-4-[4-(5-piperazin-1-yl-2-pyridyl)-1-piperidyl]pyrazolo[3,4-b]pyridine] | 0.027 µM | 0.492 L/h/kg
5 | Cc1cc(N2CC[C@H](c3ccc(N4CC(C)(N)C4)cn3)[C@@H](C)C2)c2cnn(C)c2n1 [Example 43, 1-[6-[(3R,4S)-1-(1,6-dimethylpyrazolo[3,4-b]pyridin-4-yl)-3-methyl-4-piperidyl]-3-pyridyl]-3-methyl-azetidin-3-amine] | 0.016 µM | 0.39 L/h/kg
6 | Cc1cc(N2CCNCC2)cnc1C1CCN(c2ccnc3c2cnn3C)CC1 [Example 5, 1-methyl-4-[4-(3-methyl-5-piperazin-1-yl-2-pyridyl)-1-piperidyl]pyrazolo[3,4-b]pyridine] | 0.008 µM | 0.546 L/h/kg
7 | Cc1cc(N2CCNCC2)ncc1C1CCN(c2ccnc3c2cnn3C)CC1 [Example 6, 1-methyl-4-[4-(4-methyl-6-piperazin-1-yl-3-pyridyl)-1-piperidyl]pyrazolo[3,4-b]pyridine] | 0.007 µM | 0.558 L/h/kg
8 | Cc1cc(N2CCC(c3cnc(N4CCNCC4)cn3)CC2)c2cnn(C)c2n1 [Example 3, 1,6-dimethyl-4-[4-(5-piperazin-1-ylpyrazin-2-yl)-1-piperidyl]pyrazolo[3,4-b]pyridine] | 0.02 µM | 0.558 L/h/kg
9 | COc1cc(N2CCNCC2)cnc1C1CCN(c2cc(C)nc3c2cnn3C)CC1 [Example 14, 4-[4-(3-methoxy-5-piperazin-1-yl-2-pyridyl)-1-piperidyl]-1,6-dimethyl-pyrazolo[3,4-b]pyridine] | 0.012 µM | 0.402 L/h/kg
10 | Cc1cc(N2CC[C@H](c3ccc(N4CC[C@@H](N)[C@H](F)C4)cn3)[C@@H](C)C2)c2cnn(C)c2n1 [Example 41, (3R,4R)-1-[6-[(3R,4S)-1-(1,6-dimethylpyrazolo[3,4-b]pyridin-4-yl)-3-methyl-4-piperidyl]-3-pyridyl]-3-fluoro-piperidin-4-amine] | 0.006 µM | 0.432 L/h/kg
11 | Cc1cc(N2CC[C@@H](c3ncc(N4CC5(CNCCO5)C4)cc3C)[C@H](C)C2)c2cnn(C)c2n1 [Example 27, 2-[6-[(3S,4R)-1-(1,6-dimethylpyrazolo[3,4-b]pyridin-4-yl)-3-methyl-4-piperidyl]-5-methyl-3-pyridyl]-5-oxa-2,8-diazaspiro[3.5]nonane] | 0.009 µM | 0.546 L/h/kg
12 | Cc1cc(N2CC[C@@H](c3ccc(N4CCNCC4)cn3)[C@H](C)C2)c2cnn(C)c2n1 [Example 34, 1,6-dimethyl-4-[(3S,4R)-3-methyl-4-(5-piperazin-1-yl-2-pyridyl)-1-piperidyl]pyrazolo[3,4-b]pyridine] | 0.082 µM | 0.588 L/h/kg
13 | Cc1cc(N2CC[C@@H](c3ncc(N4C[C@H]5NCCO[C@@H]5C4)cc3C)[C@H](C)C2)c2cnn(C)c2n1 [Example 33, (4aR,7aR)-6-[6-[(3S,4R)-1-(1,6-dimethylpyrazolo[3,4-b]pyridin-4-yl)-3-methyl-4-piperidyl]-5-methyl-3-pyridyl]-3,4,4a,5,7,7a-hexahydro-2H-pyrrolo[3,4-b][1,4]oxazine] | 0.011 µM | 0.372 L/h/kg
14 | CCc1cc(N2CCNCC2)cnc1C1CCN(c2cc(C)nc3c2cnn3C)CC1 [Example 13, 4-[4-(3-ethyl-5-piperazin-1-yl-2-pyridyl)-1-piperidyl]-1,6-dimethyl-pyrazolo[3,4-b]pyridine] | 0.026 µM | 0.432 L/h/kg
15 | COC[C@H]1CN(c2cnc([C@@H]3CCN(c4cc(C)nc5c4cnn5C)C[C@H]3C)c(C)c2)CCN1 [Example 29, 4-[(3S,4R)-4-[5-[(3R)-3-(methoxymethyl)piperazin-1-yl]-3-methyl-2-pyridyl]-3-methyl-1-piperidyl]-1,6-dimethyl-pyrazolo[3,4-b]pyridine] | 0.005 µM | 0.408 L/h/kg
16 | Cc1cc(N2CCC(c3cnc(N4CCNCC4)cc3C)[C@H](C)C2)c2cnn(C)c2n1 (single isomer, unassigned) [Example 21, 1,6-dimethyl-4-[trans-3-methyl-4-(4-methyl-6-piperazin-1-yl-3-pyridyl)-1-piperidyl]pyrazolo[3,4-b]pyridine] | 0.016 µM | 0.468 L/h/kg
17 | Cc1cc(N2CCC(c3ncc(N4CCNCC4)cc3C)CC2)c2cnn(C)c2n1 [Example 7, 1,6-dimethyl-4-[4-(3-methyl-5-piperazin-1-yl-2-pyridyl)-1-piperidyl]pyrazolo[3,4-b]pyridine] | 0.011 µM | 0.372 L/h/kg
18 | Cc1cc(N2CC[C@@H](c3ncc(N4CC(C)(N)C4)cc3C)[C@H](C)C2)c2cnn(C)c2n1 [Example 32, 1-[6-[(3S,4R)-1-(1,6-dimethylpyrazolo[3,4-b]pyridin-4-yl)-3-methyl-4-piperidyl]-5-methyl-3-pyridyl]-3-methyl-azetidin-3-amine] | 0.008 µM | 0.528 L/h/kg
